Reference: patent US6559167B1, “Prodrugs of proton pump inhibitors” (Regents of the University of California, priority 1998, dated 2003)
Values joined by “and” are separate entries in the source; they are usually repeats but may differ in a detail not shown here. Equal entries are not always repeated.

Columns and labels:
[1] = system: gastric acid secretion (histamine-stimulated acid output), pylorus-ligated male rats; assay: Initial inhibition of gastric acid secretion after intraduodenal administration to pylorus-ligated rats; type: in vivo; details: 10 μmole/kg, after pylorus ligation, histamine 30 mg/kg s.c., acid output over four hours, rat
Protocol: Histamine (30 mg/kg) was subcutaneously injected to stimulate acid production. The abdomen was surgically closed immediately. Four hours later the esophagus was ligated and the stomach was removed. Acid output was measured as described above.

[2] = system: gastric acid secretion of the conscious male rat; assay: Inhibitory effect on gastric acid secretion of the conscious male rat at timed intervals after oral administration; type: in vivo; details: for % inhibition of gastric acid secretion: between 5.5-8.5 hours after oral administration, 10 μmole/kg, histamine and carbachol stimulated, male rat
[3] = Relative plasma concentration of OMEPRAZOLE in male rat after oral administration; details: for Relative concentration of OMEPRAZOLE released in the plasma: male rat, examples 2 mg/kg, OMEPRAZOLE 4 mg/kg;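 as to all read-outs here: Sprague-Dawley rats fasted one day with water available, dosed orally with prodrug compounds, OMEPRAZOLE quantified by HPLC in plasma from serial blood draws, control given OMEPRAZOLE itself orally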
Protocol: Male adult rats of the Sprague-Dawley strain were used for determining the concentration of OMEPRAZOLE in the plasma. All rats were derived of food but not of water for one day. Examples of compounds of the invention (2 mg/kg of rat weight) were orally administrated to male rats (weighing 250 g to 270 g) and blood samples (0.3 ml) were taken at timed intervals. Blood samples were centrifuged and plasma was taken out. Plasma was extracted with 0.5 ml of dichloromethane. Dichloromethane layer was evaporated by nitrogen/air blowing. The residual materials were dissolved in 0.5 ml of 40% acetonitrile in 10 mM phosphate buffer (pH 7.4). Amounts of OMEPRAZOLE were determined by HPLC analysis. As a control, OMEPRAZOLE (4 mg/kg of rat weight) was orally administrated.

gastric H,K-ATPase = target: T1, gastric H,K-ATPase (Sus scrofa, UniProt P19156); assay: Inhibition of ATPase activity using isolated hog gastric vesicles; type: biochemical; details: for inhibition of enzyme activity after 80 minutes: after 80 minutes at pH 7.4, 37° C.; for inhibition of gastric H,K-ATPase activity initially (before hydrolysis): 10, 20, 50, and 100 μM, pH 7.4, 37° C.
T1 construct: from tissue; host or cells: hog gastric vesicles (stomach mucosa)
From the text: By way of concrete examples, the following tests and results are described. […] This is consistent with the knowledge that the compounds obtained by hydrolysis e. g. LANSOPRAZOLE, OMEPRAZOLE, PANTOPRAZOLE and RABEPRAZOLE are well known H,K-ATPase inhibitors. […] Another good example is 2-(2-carbamoylmethoxy-4-{2-[4-(3-methoxypropoxy)-3-methyl pyridin-2-yl methylsulfinyl]benzimidazole-1-sulfonyl}phenoxy)acetamide. The half life of this compound dependes on pH. […] Based on these measured characteristics the compound 2-(2-carbamoylmethoxy-4-{2-[4-(3-methoxypropoxy)-3-methyl pyridin-2-yl methylsulfinyl]benzimidazole-1-sulfonyl}phenoxy)acetamide is expected to be well absorbed, and slowly release the parent RABEPRAZOLE in the blood, resulting in long-lasting in vivo activity. This compound can also be administered intravenously in an aqueous solution at pH 7.4 which solution may include 2-hydroxypropyl-β-cyclodextrin.
Inhibition of ATPase activity was measured using isolated hog gastric vesicles. The gastric H,K-ATPase (10 μg) was incubated at 37° C. in a solution (1 ml) composed of 0.25M sucrose, 20 mM Pipes/Tris, pH 7.4, 0.15M KCl, 2 mM MgCl2, valinomycin 2 μg/ml, and various concentration of compounds of the invention. At timed intervals, ATP was added (up to 2 mM) and incubated for 15 minutes and amount of released phosphate ion was measured. As a control experiment the prior art drug without a labile group on the benzimidazole nitrogen (e. g. OMEPRAZOLE or LANSOPRAZOLE) was used for measuring inhibition of enzyme activity.

[4] = Solubility in aqueous buffer; type: physicochemical
[5] = Acid stability in 95% methanol containing 0.1N HCl; type: physicochemical; details: after 2.25 hour in 95% methanol containing 0.1N HCl
Protocol: Acid stability of the compounds was assayed in 95% methanol containing 0.1N HCl. Approximately 90% of the compound of Example 1 was still present intact (without decomposition) after 2.25 hour in this solution.

[6] = after 5.75 hr hydrolysis at pH 7.4, 10 μM

T1 sequence (P19156 2-1034 limits assumed): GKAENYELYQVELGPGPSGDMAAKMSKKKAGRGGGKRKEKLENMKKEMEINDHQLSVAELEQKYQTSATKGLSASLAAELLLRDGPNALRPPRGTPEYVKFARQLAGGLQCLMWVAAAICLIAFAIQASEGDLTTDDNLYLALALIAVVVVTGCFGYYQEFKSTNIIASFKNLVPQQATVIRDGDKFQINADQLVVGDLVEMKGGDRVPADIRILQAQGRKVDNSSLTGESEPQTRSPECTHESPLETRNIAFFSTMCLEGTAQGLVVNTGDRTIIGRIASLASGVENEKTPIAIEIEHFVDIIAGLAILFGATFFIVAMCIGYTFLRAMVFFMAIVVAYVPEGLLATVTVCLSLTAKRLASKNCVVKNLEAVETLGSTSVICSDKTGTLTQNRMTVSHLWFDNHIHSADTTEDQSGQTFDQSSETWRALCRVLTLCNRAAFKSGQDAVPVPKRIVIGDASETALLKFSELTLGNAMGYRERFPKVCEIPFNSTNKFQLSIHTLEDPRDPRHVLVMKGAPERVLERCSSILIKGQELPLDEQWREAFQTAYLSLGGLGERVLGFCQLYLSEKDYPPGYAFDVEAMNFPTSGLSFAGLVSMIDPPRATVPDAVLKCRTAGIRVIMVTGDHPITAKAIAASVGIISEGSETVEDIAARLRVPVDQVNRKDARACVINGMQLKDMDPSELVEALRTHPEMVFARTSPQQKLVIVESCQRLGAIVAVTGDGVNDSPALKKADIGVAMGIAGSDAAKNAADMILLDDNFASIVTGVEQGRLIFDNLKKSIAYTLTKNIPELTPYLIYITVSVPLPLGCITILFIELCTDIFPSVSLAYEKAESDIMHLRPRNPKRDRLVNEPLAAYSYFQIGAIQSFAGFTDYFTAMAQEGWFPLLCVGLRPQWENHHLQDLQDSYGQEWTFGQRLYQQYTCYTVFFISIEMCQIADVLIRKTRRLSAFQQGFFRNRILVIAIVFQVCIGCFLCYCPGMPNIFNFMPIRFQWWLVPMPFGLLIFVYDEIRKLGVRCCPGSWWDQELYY
T1 sequence (P18434 whole entry partner): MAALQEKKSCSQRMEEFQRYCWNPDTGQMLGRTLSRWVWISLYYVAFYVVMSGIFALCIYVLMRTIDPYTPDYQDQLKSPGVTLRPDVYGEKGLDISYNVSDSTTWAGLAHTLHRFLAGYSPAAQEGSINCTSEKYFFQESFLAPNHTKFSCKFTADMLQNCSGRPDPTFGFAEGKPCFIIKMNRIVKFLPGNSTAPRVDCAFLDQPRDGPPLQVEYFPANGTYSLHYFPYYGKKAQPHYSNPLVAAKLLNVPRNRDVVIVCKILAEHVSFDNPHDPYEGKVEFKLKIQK

Question: For `COc1ccc2[nH]c([S+]([O-])Cc3ncc(C)c(OC)c3C)nc2c1` (stereo not drawn) [OMEPRAZOLE, 5-methoxy-2-[(3,5-dimethyl-4-methoxy-2-pyridyl)methylsulfinyl]-1H-benzimidazole, reference compound], which “inhibition of histamine-stimulated acid output” value [1] is on record?
Answer: Its value is 54.6%.

Question: What about the “% inhibition of gastric acid secretion” value [2] of the same compound?
Answer: Its value is 19.6% and 19.6 ± 3.9%.

Question: What about the “Relative concentration of OMEPRAZOLE released in the plasma” value (shortened to “Relative concentration”) ([3]; 20 min after oral administration) of the same compound?
Answer: The value was 28 arbitrary unit.

Question: What about the “Relative concentration” value ([3]; 40 min after oral administration) of the same compound?
Answer: Its value is 4 arbitrary unit.

Question: What about the “Relative concentration” value ([3]; 60 min after oral administration) of the same compound?
Answer: Its value is 2 arbitrary unit.

Question: What about the “Relative concentration” value ([3]; 80 min after oral administration) of the same compound?
Answer: The value was 1 arbitrary unit.

Question: What about the “time until OMEPRAZOLE has completely disappeared from the plasma” value ([3]; administrated to male rat (control)) of the same compound?
Answer: Its value is ≤ 1.5 h.

Question: And the inhibition at 10 µM (gastric H,K-ATPase; [6])?
Answer: Its inhibition at 10 µM is 91%.

Question: And the “inhibition of gastric H,K-ATPase activity after 5.75 hr hydrolysis” value (“inhibition … after 5.75 hr hydrolysis” below) (gastric H,K-ATPase; [6])?
Answer: Its value is “the same level of inhibition”.

Question: Which results are given for “2-{2-carbamoylmethoxy-4-[5-methoxy-2-((4-methoxy-3,5-dimethyl pyridin-2-yl)methylsulfinyl)benzimidazole-1-sulfonyl]phenoxy}acetamide and 2-{2-carbamoylmethoxy-4-[6-methoxy-2-((4-methoxy-3,5-dimethyl pyridin-2-yl)methylsulfinyl)benzimidazole-1-sulfonyl]phenoxy}acetamide [Example 74]”?
Answer: inhibition of histamine-stimulated acid output [1]: 64.2%; gastric acid secretion after administration to male rat (in words) ([2]; administrated to male rat): significantly and continuously inhibited; % inhibition of gastric acid secretion [2]: 49.7 ± 3.7%; % inhibition of gastric acid secretion ([2]; listed as 2-{2-carbamoylmethoxy-4-[5-methoxy-2-(4-methoxy-3,5-dimethyl pyridin-2-yl)metha): 49.7%

Question: Which “solubility in aqueous buffer (comparison)” value [4] does the source give for “1-Benzenesulfonyl-5-methoxy-2-[(3,5-dimethyl-4-methoxy-2-pyridyl)methylsulfinyl]-1H-benzimidazole and 1-Benzensulfonyl-6-methoxy-2-[(3,5-dimethyl-4-methoxy-2-pyridyl)methylsulfinyl]-1H-benzimidazole [Example 1]” here?
Answer: The value was “slightly higher solubility in aqueous buffer than the compound of Example 19”.

Question: And the “compound still present intact (without decomposition)” value [5]?
Answer: Its value is “Approximately 90%”.

Question: What about the “inhibition of enzyme activity after 80 minutes” value (gastric H,K-ATPase; 10 μM) of the same compound?
Answer: Its value is 10%.

Question: What about the “inhibition of enzyme activity after 80 minutes” value (gastric H,K-ATPase; 50 μM) of the same compound?
Answer: The value was 50%.

Question: What about the “inhibition … after 5.75 hr hydrolysis” value (gastric H,K-ATPase; [6]) of the same compound?
Answer: The value was “the same level of inhibition”.

Question: And the “inhibition … after 5.75 hr hydrolysis” value (gastric H,K-ATPase; after 5.75 hr hydrolysis at pH 7.4, 10 μM, listed as 1-benzenesulfonyl-5-methoxy-2-[(3,5-dimethyl-4-methoxy-2-pyridyl)methylsulfinyl], 10 µM)?
Answer: Its value is 91%.

Question: What about the “inhibition of gastric H,K-ATPase activity initially (before hydrolysis)” value (gastric H,K-ATPase) of the same compound?
Answer: The value was “failed to inhibit enzyme activity”.

Question: And the “inhibition of gastric H,K-ATPase activity initially (before hydrolysis)” value (gastric H,K-ATPase; listed as 1-benzenesulfonyl-5-methoxy-2-[(3,5-dimethyl-4-methoxy-2-pyridyl)methylsulfinyl])?
Answer: Its value is “did not inhibit”.
